Among the data in patent publication US20130123215A1, “2,5-DIOXOIMIDAZOLIDIN-1-YL-3-PHENYLUREA DERIVATIVES AS FORMYL PEPTIDE RECEPTOR LIKE-1 (FPRL-1) RECEPTOR MODULATORS” (ALLERGAN, INC., priority 2011, published 2013) are EC50 values, retold here.

The structures appear in SMILES notation. Where “and” joins values, the source holds several entries; their conditions need not be identical. Equal entries are not always repeated.

The target of one assay is T1, FPRL-1 (Homo sapiens, UniProt P25090).
T1 construct: expressed in transfected cells; host or cells: CHO-Gα16 cells stably expressing FPRL1
T1 sequence (P25090 1-351): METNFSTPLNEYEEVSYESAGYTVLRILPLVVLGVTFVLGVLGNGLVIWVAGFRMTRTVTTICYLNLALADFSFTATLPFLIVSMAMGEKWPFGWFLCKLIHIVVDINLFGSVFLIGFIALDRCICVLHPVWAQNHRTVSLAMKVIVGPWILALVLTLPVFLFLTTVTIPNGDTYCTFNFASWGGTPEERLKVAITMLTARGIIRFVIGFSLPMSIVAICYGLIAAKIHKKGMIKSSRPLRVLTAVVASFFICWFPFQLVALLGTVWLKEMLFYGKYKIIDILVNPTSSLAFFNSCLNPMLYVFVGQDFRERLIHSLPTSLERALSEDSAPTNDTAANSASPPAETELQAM
Nature of the assay: FPRL-1 Ga16-CHO compound-induced calcium activity (FLIPR Tetra). Format: cell-based. Particulars: CHO-Gα16 cells stably expressing FPRL1; calcium activity on FLIPR Tetra; tested at 0.61 to 10,000 nM; read-out: FPRL-1 Ga16-CHO EC50. The method, then: HEK-Gα16 and CHO-Gα16 cells stably expressing FPRL1 were cultured in (F12, 10% FBS, 1% PSA, 400 μg/ml geneticin and 50 μg/ml hygromycin) and HEK-Gqi5 cells stable expressing FPR1 were cultured in (DMEM high glucose, 10% FBS, 1% PSA, 400 μg/ml geneticin and 50 μg/ml hygromycin). In general, the day before the experiment, 18,000 cells/well were plated in a 384-well clear bottom poly-d-lysine coated plate. The following day the screening compound-induced calcium activity was assayed on the FLIPR^Tetra. The drug plates were prepared in 384-well microplates using the EP3 and the MultiPROBE robotic liquid handling systems. Compounds were tested at concentrations ranging from 0.61 to 10,000 nM. Results are expressed as EC50 (nM) and efficacy values.
For the molecule `CCC1(CCc2ccccc2C(=O)O)NC(=O)N(NC(=O)Nc2ccc(Br)cc2F)C1=O` (stereo not shown) [Compound 80, 2-[2-(1-{[(4-Bromo-2-fluorophenyl)carbamoyl]amino}-4-ethyl-2,5-dioxoimidazolidin-4-yl)ethyl]benzoic acid], the EC50 worked out at 11.1 nM. Same read-out and setting: to `CCC1(CCc2ccccc2)NC(=O)N(NC(=O)Nc2ccc(Br)cc2F)C1=O` (stereo not shown) [Compound 29, 1-(4-Bromo-2-fluorophenyl)-3-(4-ethyl-2,5-dioxo-4-(phenethyl)imidazolidin-1-yl)urea] belongs less than 2 nM; to `CCC1(CCc2ccccc2)NC(=O)N(NC(=O)Nc2ccc(Br)cc2)C1=O` (stereo not shown) [Compound 30, 1-(4-Bromophenyl)-3-(4-ethyl-2,5-dioxo-4-(phenethyl)imidazolidin-1-yl)urea], 0.5 nM; to `CC1(CCc2ccc(Cl)cc2)NC(=O)N(NC(=O)Nc2ccc(Br)cc2F)C1=O` (stereo not shown) [Compound 34], 1380 nM. In the case of `O=C(Nc1ccc(Br)cc1)NN1C(=O)NC2(CCCCC2)C1=O` [Compound 14, 1-(4-Bromophenyl)-3-(2,4-dioxo-1,3-diazaspiro[4.5]decan-3-yl)urea], the EC50 came out at 13.6 nM.

Regarding `CCc1ccc2[nH]c(C3(C)NC(=O)N(NC(=O)Nc4ccc(Br)cc4F)C3=O)cc2c1` (stereo not shown) [Compound 65, 1-(4-Bromo-2-fluorophenyl)-3-[4-(5-ethyl-1H-indol-2-yl)-4-methyl-2,5-dioxoimidazolidin-1-yl]urea], the half-maximal effective concentration (EC50) was found to be 169 nM. In the case of `CC1(CCc2ccncc2)NC(=O)N(NC(=O)Nc2ccc(Br)cc2)C1=O` (stereo not shown) [Compound 54, 1-(4-Bromophenyl)-3-(4-methyl-2,5-dioxo-4-(2-(pyridin-4-yl)ethyl)imidazolidin-1-yl)urea], the EC50 was determined as 30.2 nM. For `CC(C)OP(=O)(CNC(=O)CC1(C(C)C)NC(=O)N(NC(=O)Nc2ccc(Br)cc2)C1=O)OC(C)C` (stereo not shown) [Compound 88, Diisopropyl((2-(1-(3-(4-bromophenyl)ureido)-4-isopropyl-2,5-dioxoimidazolidin-4-yl)acetamido)methyl)phosphonate], the EC50 turned out to be 193 nM.

For the molecule `CCc1ccc2[nH]c(C3(C)NC(=O)N(c4ccc(Br)cc4)C3=O)cc2c1` (stereo not shown) [3-(4-Bromophenyl)-5-(5-ethyl-1H-indol-2-yl)-5-methylimidazolidine-2,4-dione], the EC50 came out at 2590 nM. On the same count and under the same terms, to `CC1(CCc2ccccc2F)NC(=O)N(NC(=O)Nc2ccc(Br)cc2F)C1=O` (stereo not shown) [Compound 38, 1-(4-Bromo-2-fluorophenyl)-3-(4-(2-fluorophenethyl)-4-methyl-2,5-dioxoimidazolidin-1-yl)urea] belongs 56.2 nM; to `CC(C)CC1(CCc2ccccc2)NC(=O)N(NC(=O)Nc2ccc(Br)cc2F)C1=O` (stereo not shown) [Compound 32], 105 nM. Consider `CCC1(CC)NC(=O)N(NC(=O)Nc2ccc(Cl)cc2)C1=O` [Compound 2, 1-(4-Chlorophenyl)-3-(4,4-diethyl-2,5-dioxoimidazolidin-1-yl)urea], for which the EC50 was found to be 27 nM.

For the molecule `Cc1ccc(CCC2(C)NC(=O)N(NC(=O)Nc3ccc(Br)cc3)C2=O)o1` (stereo not shown) [Compound 46, 1-(4-Bromophenyl)-3-(4-methyl-4-(2-(5-methylfuran-2-yl)ethyl)2,5-dioxoimidazolidin-1-yl)urea], the EC50 worked out at 3.5 nM. On the same count and under the same terms, to `O=C(Nc1ccc(Br)cc1)NN1C(=O)NC(C2CC2)(C2CC2)C1=O` [Compound 66, 1-(4-Bromophenyl)-3-(4,4-dicyclopropyl-2,5-dioxoimidazolidin-1-yl)urea] belongs 14.3 nM; to `CC1(CCc2cccs2)NC(=O)N(NC(=O)Nc2ccc(Br)cc2F)C1=O` (stereo not shown) [Compound 44], 86 nM; to `CCC1(CC)NC(=O)N(NC(=O)Nc2ccc(Br)cc2)C1=O` [Compound 1, 1-(4-Bromophenyl)-3-(4,4-diethyl-2,5-dioxoimidazolidin-1-yl)urea], 9.1 nM. With `CCC1(CC)NC(=O)N(NC(=O)Nc2ccc(Br)cc2F)C1=O` [Compound 6, 1-(4-Bromo-2-fluorophenyl)-3-(4,4-diethyl-2,5-dioxoimidazolidin-1-yl)urea], the concentration giving a half-maximal response (EC50) was determined as 15.6 nM. Consider `CC1(CCc2cccc(O)c2)NC(=O)N(NC(=O)Nc2ccc(Br)cc2)C1=O` (stereo not shown) [Compound 52, 1-(4-Bromophenyl)-3-(4-(3-hydroxyphenethyl)-4-methyl-2,5-dioxoimidazolidin-1-yl)urea], for which the EC50 was 1.5 nM and 2.07 nM. Regarding `CC1(Cc2c[nH]c3ccccc23)NC(=O)N(NC(=O)Nc2ccc(Br)cc2)C1=O` (stereo not shown) [Compound 64, 1-(4-Bromophenyl)-3-[4-(1H-indol-3-ylmethyl)-4-methyl-2,5-dioxoimidazolidin-1-yl]urea], the EC50 is 114 nM.

On to `O=C(Nc1ccc(Br)cc1)NN1C(=O)NC2(Cc3ccccc3C2)C1=O` [Compound 13, 1-(4-Bromophenyl)-3-(2,5-dioxo-1′,3′-dihydrospiro[imidazolidine-4,2′-inden]-1-yl)urea], for which the EC50 was found to be 47 nM. Consider `CC(C)C1(CCO)NC(=O)N(NC(=O)Nc2ccc(Br)cc2)C1=O` (stereo not shown) [Compound 75, 1-(4-Bromophenyl)-3-(4-(2-hydroxyethyl)-4-isopropyl-2,5-dioxoimidazolidin-1-yl)urea], for which the EC50 turned out to be 21.2 nM. Turning to `CCC1(CC)NC(=O)N(NC(=O)Nc2ccc(Cl)c(F)c2)C1=O` [Compound 19, 1-(4-Chloro-3-fluorophenyl)-3-(4,4-diethyl-2,5-dioxoimidazolidin-1-yl)urea], the EC50 was 149 nM.

`CC1(CCc2ccc(O)c(F)c2)NC(=O)N(NC(=O)Nc2ccc(Br)cc2)C1=O` (stereo not shown) [Compound 47, 1-(4-Bromophenyl)-3-(4-(3-fluoro-4-hydroxyphenethyl)-4-methyl-2,5-dioxoimidazolidin-1-yl)urea]: the EC50 was 7.9 nM.

The assay is the same for the next values; noted with them: FPRL-1 Ga16-CHO EC50, CHO-Gα16 cells stably expressing FPRL1; calcium activity on FLIPR Tetra; tested at 0.61 to 10,000 nM.
Take `CCOP(=O)(O)CNC(=O)CC1(C(C)C)NC(=O)N(NC(=O)Nc2ccc(Br)cc2)C1=O` (stereo not shown) [Compound 89, Ethyl hydrogen((2-(1-(3-(4-bromophenyl)ureido)-4-isopropyl-2,5-dioxoimidazolidin-4-yl)acetamido)methyl)phosphonate]: the EC50 turned out to be 313 nM. In the case of `CCOP(=O)(CNC(=O)CC1(C(C)C)NC(=O)N(NC(=O)Nc2ccc(Br)cc2)C1=O)OCC` (stereo not shown) [Compound 86, Diethyl((2-(1-(3-(4-bromophenyl)ureido)-4-isopropyl-2,5-dioxoimidazolidin-4-yl)acetamido)methyl)phosphonate], the EC50 was 272 nM.
